Series [1] concerns the target T1, ifenprodil binding site of NR2B subunit containing NMDA receptors (Rattus norvegicus, UniProt P35439+Q00960).
T1 construct: 400 μl of the membrane suspension, containing a total amount of 2.5 mg original wet weight of tissue; from tissue; host or cells: rat forebrain membranes
In words: Competition binding assay against [3H]ifenprodil on rat forebrain membranes. The following applies: displacement of 5 nM [3H]ifenprodil; mean±SEM of 2-6 determinations in triplicate. Here is the method: Male Wistar rats (180-200 g) were killed by decapitation. The forebrains were rapidly removed and homogenized using a DUALL tissue homogenizer (10 strokes, 2000 rpm), in a 10-fold excess (v/w) of ice-cold 0.25 M sucrose. The nuclei and cell debris were removed by centrifugation (10 min×400×g), in a Beckman refrigerated ultracentrifuge (rotor 60Ti). The resulting pellet was rehomogenized in 5 vol 0.25 sucrose and recentrifuged. The combined supernatants were diluted in Tris-acetate buffer (50 mM, pH 7.4) to a final dilution of 40 v/w, and centrifuged for 30 min×200,000×g, in order to obtain membranes from the cell surface, mitochondrial, and microsomal fractions. The pellet was resuspended in 20 volumes of Tris-HCl+0.01% Triton buffer (pH 7.4), kept at 37° C. for 10 min, and recentrifuged. The final pellet was suspended in Tris-HCl buffer (dilution 5, pH 7.4), and stored at −80° C. in 5 ml aliquots. On the day of each experiment, membranes were thawed to room temperature and washed twice by centrifugation (30 min×200,000×g). After the final centrifugation, pellets were suspended in 80 volumes (v/w) of 50 mM Tris-HCl buffer (pH 7.4).
Competition binding experiments were carried out on ice, in a final volume of 500 μl assay buffer (50 mM Tris-HCl, pH 7.4), containing 5 μM GBR 12909 to block […] binding. The incubation mixture was composed of 400 μl of the membrane suspension, containing a total amount of 2.5 mg original wet weight of tissue, 50 μl of [^3H]ifenprodil, and 5 μl of unlabelled drug solution (final DMSO concentration: 1%). Nonspecific binding was determined in the presence of 10 μM Ro 25-6981. Incubations were terminated after 2 hr by filtration through 0.3% PEI-embedded Whatman GF/B filters, using a 48-well Brandel harvester. The filters were washed three times with 3 ml of ice cold Tris-HCl buffer (pH 7.4), and radioactivity was determined by liquid scintillation spectrometry in 5 ml of Optiphase-HiSafe 3, at an efficiency of 40%.
Ki values were determined by nonlinear regression analysis using the equation: log EC50=log [10̂log Ki*(1+RadioligandNM/HotKdNM)], (GraphPad Software Inc., San Diego, Calif.).

A short description of series [2]: Biodistribution of [11C]HC-242 in anaesthetized mice. The series is classed as in vivo, B6C3F1/J mice. Here is the method: Animals were anaesthetized with a 1:2:1 mixture of ffm [fentanyl/fluanisone (Hypnorm™; Vetapharma, Leeds, UK), sterile water, midazolam (Dormicum™; Actavis, Harnarfjordur, Iceland)]. The anaesthetic was administered intraperitoneally (11 ml/kg), 5 min prior to radiotracer administration. […] Following the injections, mice were killed by cervical dislocation at 5, 15, 30, or 60 min (n=4/time point). At each time point, blood was obtained by heart punctures and selected organs, including the heart, liver, kidneys, lungs and brain were removed. The brain was further dissected into frontal cortex, olfactory tubercle, striatum, cerebral cortex (bregma 1.70-0.02 mm), entorhinal cortex, hippocampus, hypothalamus, cerebellum, and pons/medulla oblongata. All organs and brain areas were weighed, and recovered radioactivity was determined in a 1282 Compugamma CS (LKB Wallac, Turku, Finland), using 5×10 μl aliquots of the injected formulation as standard. Results are expressed as the differential absorption ratio (DAR): (cpm recovered/g tissue)/(cpm injected/g body weight). Two-way repeated measures ANOVA, followed by Fisher's LSD post-hoc comparisons, was used for analysis of radiotracer uptake in different brain regions (or organs), at different time points.

Series [3] addresses T2, NR2B site of NMDA receptors (Mus musculus, UniProt P35438+Q01097).
T2 construct: from tissue; host or cells: mouse brain (sections in vitro; whole brain in vivo)
In words: In vitro autoradiography of [11C]HC-242 on mouse brain sections (non-specific: 1 μM Ro25-6981). The series is classed as binding, B6C3F1/J mice. Here is the method: 20 μm thick coronal brain sections were thawed from −20° C. to room temperature, pre-washed 2×10 min in assay buffer (50 mM Tris-HCl, pH 7.4), and dried. […] To determine non-specific binding, a series of immediately adjacent brain sections was incubated in the same buffer, in the presence of 1 μM Ro25-6981. Incubations were terminated by 1 min washing into ice-cold assay buffer (pH 7.4), followed by a rapid rinse in ice-cold demi water. The sections were then air dried and opposed overnight to Kodak BioMax MR-1 film, which was developed in Kodak D19 developer and fixed with Kodak rapid fixer (Sigma-Aldrich, Zwijndrecht, the Netherlands). […] Specific binding was quantified following the subtraction of […] binding images.

A short description of series [4]: Determination of Log Doct,7.4. The note with it: 1-octanol / 0.2M phosphate buffer pH 7.4, room temperature, triplicate. The series is classed as physicochemical. The method, then:
The distribution of the radio labelled compounds between 1-octanol and 0.2M phosphate buffer (pH=7.4) was measured in triplicate at room temperature. Briefly, 1 mL of a 20 MBq/mL solution of the radio labelled compound in 0.2M phosphate buffer (pH=7.4) was vigorously mixed with 1 mL of 1-octanol for 1 min at room temperature using a vortex. After a settling period of 30 min, five samples of 100 μL were taken from both layers. For determining recovery, 5 samples of 100 μL were taken from the 20 MBq/mL solution. All samples were counted for radioactivity. The Log Doct,7.4 value was calculated according to Log Doct,7.4=^10Log(Aoct/Abuffer), where Aoct and Abuffer represent the average radioactivity counted of the 5 1-octanol and 5 buffer samples, respectively.

In series [5] the target is T2, NR2B site of NMDA receptors. The series is described as follows: Blocking of [11C]HC-242 brain uptake by Ro25-6981 in anaesthetized mice (ex vivo autoradiography). Set-up: species or system B6C3F1/J mice. The note with it: for mean % change: blocked (Ro25-6981) vs unblocked. The method, then: 15 min after radiotracer injection, mice were killed by cervical dislocation, and the brains were removed, frozen in liquid nitrogen and processed for quantitative autoradiography. 20 μm coronal brain sections from control and Ro25-6981 treated mice were obtained at −21° C. in a Leica CM3050S cryostat (Leica Microsystems, Rijswijk, the Netherlands), and were immediately opposed to phosphor storage screens. The screens were read in a Storm™ 860 Phosphorimager on the following day, and the images obtained were analyzed using ImageQuant TL 8.1 software (GE Healthcare Europe GmbH, Diegem, Belgium). A series of immediately adjacent brain sections were opposed to Kodak Biomax MR-1 film, which was developed after overnight exposure, to obtain high resolution images. […] Analysis of radiotracer uptake in control and blocked mice across different brain regions was performed using two-way ANOVA.

Where a name gives a salt, the structure may show the parent alone.

The record followed here is patent publication US20150183743A1, “COMPOUND AND USE OF COMPOUND TO PREPARE A RADIOLABELLED COMPOUND” (STICHTING VU-VUMC, priority 2012, published 2015).

T2 sequence (Q01097 27-1482, other chains not shown): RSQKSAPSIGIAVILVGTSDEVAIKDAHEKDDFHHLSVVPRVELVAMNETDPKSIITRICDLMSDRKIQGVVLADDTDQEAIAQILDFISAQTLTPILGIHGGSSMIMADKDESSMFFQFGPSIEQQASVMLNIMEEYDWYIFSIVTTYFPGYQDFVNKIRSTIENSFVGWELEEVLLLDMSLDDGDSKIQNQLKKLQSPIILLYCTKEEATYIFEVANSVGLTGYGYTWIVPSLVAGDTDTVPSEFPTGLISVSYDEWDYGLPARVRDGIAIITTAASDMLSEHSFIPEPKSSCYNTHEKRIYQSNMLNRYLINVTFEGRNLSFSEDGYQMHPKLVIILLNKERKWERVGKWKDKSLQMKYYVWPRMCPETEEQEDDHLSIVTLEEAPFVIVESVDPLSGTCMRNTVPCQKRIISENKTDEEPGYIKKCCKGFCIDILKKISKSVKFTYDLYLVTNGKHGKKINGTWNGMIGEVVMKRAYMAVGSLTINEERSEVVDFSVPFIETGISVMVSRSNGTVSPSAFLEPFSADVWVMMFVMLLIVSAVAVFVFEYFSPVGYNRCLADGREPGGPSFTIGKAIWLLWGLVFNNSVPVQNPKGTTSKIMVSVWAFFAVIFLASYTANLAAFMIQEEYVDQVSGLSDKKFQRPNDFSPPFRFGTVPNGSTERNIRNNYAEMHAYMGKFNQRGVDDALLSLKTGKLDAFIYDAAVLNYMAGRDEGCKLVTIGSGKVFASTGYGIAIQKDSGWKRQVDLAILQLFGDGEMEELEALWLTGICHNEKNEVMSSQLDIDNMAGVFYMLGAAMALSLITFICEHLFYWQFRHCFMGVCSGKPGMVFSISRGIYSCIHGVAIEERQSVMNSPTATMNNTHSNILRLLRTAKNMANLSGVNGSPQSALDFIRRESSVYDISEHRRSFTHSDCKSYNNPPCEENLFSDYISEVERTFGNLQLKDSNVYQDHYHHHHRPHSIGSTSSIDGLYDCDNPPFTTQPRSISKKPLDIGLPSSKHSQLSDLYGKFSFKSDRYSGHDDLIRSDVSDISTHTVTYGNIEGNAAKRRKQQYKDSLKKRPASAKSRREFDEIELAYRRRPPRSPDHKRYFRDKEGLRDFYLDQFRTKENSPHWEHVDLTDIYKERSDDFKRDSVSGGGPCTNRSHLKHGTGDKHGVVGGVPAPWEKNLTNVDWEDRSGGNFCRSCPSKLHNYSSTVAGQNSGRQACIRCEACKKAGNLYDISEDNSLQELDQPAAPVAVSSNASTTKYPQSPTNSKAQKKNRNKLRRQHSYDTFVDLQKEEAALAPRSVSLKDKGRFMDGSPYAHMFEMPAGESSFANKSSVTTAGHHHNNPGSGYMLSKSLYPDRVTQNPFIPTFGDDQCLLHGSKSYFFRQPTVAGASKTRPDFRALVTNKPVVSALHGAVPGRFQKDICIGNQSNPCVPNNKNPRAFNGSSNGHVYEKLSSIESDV
T1 sequence (Q00960 27-1482, other chains not shown): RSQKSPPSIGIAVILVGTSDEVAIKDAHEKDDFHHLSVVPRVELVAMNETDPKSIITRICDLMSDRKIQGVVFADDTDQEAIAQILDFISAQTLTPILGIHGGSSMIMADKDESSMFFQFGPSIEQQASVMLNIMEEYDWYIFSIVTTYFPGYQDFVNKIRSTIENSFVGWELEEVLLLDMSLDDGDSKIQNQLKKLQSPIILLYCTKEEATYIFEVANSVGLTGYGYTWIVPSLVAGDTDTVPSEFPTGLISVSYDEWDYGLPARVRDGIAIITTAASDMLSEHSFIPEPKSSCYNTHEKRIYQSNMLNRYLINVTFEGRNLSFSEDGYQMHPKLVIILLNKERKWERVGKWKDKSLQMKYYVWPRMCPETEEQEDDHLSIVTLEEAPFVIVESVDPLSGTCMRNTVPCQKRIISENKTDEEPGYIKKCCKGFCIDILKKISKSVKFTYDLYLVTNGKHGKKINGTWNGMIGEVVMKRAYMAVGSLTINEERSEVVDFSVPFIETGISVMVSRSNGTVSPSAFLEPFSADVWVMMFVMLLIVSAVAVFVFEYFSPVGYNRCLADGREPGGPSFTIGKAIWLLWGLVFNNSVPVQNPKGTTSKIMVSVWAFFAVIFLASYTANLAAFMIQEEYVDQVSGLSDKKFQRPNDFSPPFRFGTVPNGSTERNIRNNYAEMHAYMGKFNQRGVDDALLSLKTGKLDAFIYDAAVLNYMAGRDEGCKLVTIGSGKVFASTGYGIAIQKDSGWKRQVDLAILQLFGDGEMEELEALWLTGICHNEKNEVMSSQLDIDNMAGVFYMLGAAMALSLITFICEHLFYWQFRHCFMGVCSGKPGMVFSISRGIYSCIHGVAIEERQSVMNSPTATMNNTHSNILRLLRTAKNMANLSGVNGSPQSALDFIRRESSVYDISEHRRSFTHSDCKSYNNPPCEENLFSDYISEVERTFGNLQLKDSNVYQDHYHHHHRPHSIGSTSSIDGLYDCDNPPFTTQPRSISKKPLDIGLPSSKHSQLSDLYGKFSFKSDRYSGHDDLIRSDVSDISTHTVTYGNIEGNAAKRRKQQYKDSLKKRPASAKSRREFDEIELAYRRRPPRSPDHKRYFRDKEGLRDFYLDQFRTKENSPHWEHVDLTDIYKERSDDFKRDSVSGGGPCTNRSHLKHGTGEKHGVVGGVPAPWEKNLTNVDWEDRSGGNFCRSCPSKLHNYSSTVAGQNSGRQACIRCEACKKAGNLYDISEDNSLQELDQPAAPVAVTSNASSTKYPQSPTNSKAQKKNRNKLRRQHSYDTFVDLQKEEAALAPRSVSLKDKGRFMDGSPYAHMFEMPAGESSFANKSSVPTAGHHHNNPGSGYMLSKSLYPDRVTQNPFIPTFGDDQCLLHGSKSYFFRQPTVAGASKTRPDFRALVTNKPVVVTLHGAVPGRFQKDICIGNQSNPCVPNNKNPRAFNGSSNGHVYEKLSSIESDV

`COc1cc(F)ccc1-c1cncc(CNCC2CC2)c1` [Example 2, 1-cyclopropyl-N-((5-(4-fluoro-2-methoxyphenyl)pyridin-3-yl)methyl)methanamine dihydrochloride] yielded a Ki in series [1] of 0.0087 ± 0.0012 µM.
Consider `COc1cc(F)ccc1-c1cccc(CNCC2CC2)c1` [Example 4, 1-cyclopropyl-N-((4′-fluoro-2′-methoxy-[1,1′-biphenyl]-3-yl)methyl)methanamine hydrochloride], for which the inhibition constant (Ki) in series [1] was 0.0677 ± 0.0081 µM.
`Oc1cc(F)ccc1-c1cncc(CNC2CCCC2)c1` [Example 5, 2-(5-((cyclopentylamino)methyl)pyridin-3-yl)-5-fluorophenol] displayed a Ki in series [1] of 1.3 ± 0.6 µM.
The same measure, in the same setting: for `FCOc1cc(F)ccc1-c1cncc(CNC2CCCC2)c1` [Example 6, N-((5-(4-fluoro-2-(fluoromethoxy)phenyl)pyridin-3-yl)methyl)cyclopentanamine dihydrochloride] the value was 0.0154 ± 0.0013 µM.
Same read-out and setting: then `FCCOc1cc(F)ccc1-c1cncc(CNC2CCCC2)c1` [Example 7, N-((5-(4-fluoro-2-(2-fluoroethoxyl)phenyl)pyridin-3-yl)methyl)cyclopentanamine dihydrochloride], with 0.156 ± 0.0218 µM; and `Fc1ccc(-c2cncc(CNC3CCCC3)c2)cc1` [Example 10, N-((5-(4-fluorophenyl)pyridin-3-yl)methyl)cyclopentanamine dihydrochloride], with 0.0033 ± 0.0019 µM; and `Fc1ccc(-c2cccc(CNC3CCCC3)c2)cc1` [Example 11, N-((4′-fluoro-[1,1′-biphenyl]-3-yl)methyl)cyclopentanamine hydrochloride], with 0.0131 ± 0.0018 µM.
Still for that read-out and setting: for `Fc1ccc(-c2cncc(CNCC3CC3)c2)cc1` [Example 12, 1-cyclopropyl-N-((5-(4-fluorophenyl)pyridin-3-yl)methyl)methanamine dihydrochloride] the value was 0.0029 ± 0.0003 µM.
On to `[11CH3]Oc1cc(F)ccc1-c1cncc(CNC2CCCC2)c1` [[^11C]HC-242, N-((5-(4-fluoro-2-^11C-methoxyphenyl)pyridin-3-yl)methyl)cyclopentanamine], for which the DAR in series [2] (blood, 5 min) stood at 0.04±0.01; in series [2] (cerebellum, 15 min), 0.14±0.01; in series [2] (cerebral cortex, 15 min) it was 0.25±0.03; in series [2] (entorhinal cortex, 15 min) it was 0.62±0.22; in series [2] (frontal cortex, 15 min), 0.26±0.02; in series [2] (heart, 5 min), 0.19±0.04. Besides, the DAR is on record as 0.33±0.03 in series [2] (hippocampus, 15 min); 0.15±0.05 in series [2] (liver, 5 min); 0.14±0.02 in series [2] (pons/medulla oblongata, 15 min); 0.24±0.03 in series [2] (striatum, 15 min). For the same molecule, the “mean percentage of specific binding” value in series [3] (across all brain regions analyzed) turned out to be 24.0±3.5%. Besides, the Specific labelling entry is on record as “high” in series [3] (cerebral cortex, hippocampus, olfactory tubercle, striatum); “absent” in series [3] (subthalamic brain regions); “low” in series [3] (thalamus). Moreover, the “percentage of specific binding” value came to 39.6±10.4% in series [3] (olfactory tubercle) and 3.3±2.1% in series [3] (thalamus). Moreover, the pH-dependent lipophilicity (logD) in series [4] came to 2.14 ± 0.02. Besides, the mean % change in series [5] (Experiment No 1, [11C]HC-242 23.7 μM at t0) is listed as −22.5%; in series [5] (Experiment No 2, [11C]HC-242 2.6 μM at t0), −21.9%; in series [5] (Experiment No 3, [11C]HC-242 14.6 μM at t0), 33.3%. In series [5] (Ro25-6981 10.0 mg/kg i.p. pretreatment, across all brain regions, pairs showing decrease), the “mean decrease in radioactivity uptake induced by Ro25-6981” value stood at 22.3±1.9%. Moreover, the “mean increase in radioactivity uptake induced by Ro25-6981” value in series [5] (Ro25-6981 10.0 mg/kg i.p. pretreatment, across all brain regions, pairs showing increase) was 29.4±4.2%.
